“Also recorded” adds a separate entry of the source.
Columns and labels:
[1] = test system: Calvarial osteoblast cells; assay: MTT cell proliferation assay; type: cell-based, rat; settings: 10^−10 M to 10^−6M, 24 hrs
Procedure: (§1) Neonatal rat calvarial cell cultures are prepared as described previously (Endocrinology 145:3451) using slight modification. Briefly, for primary osteoblast cell cultures, frontal and parietal bones from Sprague-Dawley rat neonates (1-3 day old) are digested in 0.1% collagenase/0.1% dispase in α-MEM to obtain 5 sequential digests. The second through fifth digests are combined and grown to confluence at 37° C. and 5% CO2 in air in α-MEM, supplemented with 10% fetal bovine serum (FBS), 2 mM glutamine, 100 U/ml penicillin-streptomycin, Non-essential amino acid solution and sodium pyruvate.
MTT [3-(4,5-dimethylthiazol-2-yl)-2,5-diphenyltetrazolium bromide] assay, first described by Mosmann in 1983, is based on the ability of a mitochondrial dehydrogenase enzyme from viable cells to cleave the tetrazolium rings of the pale yellow MTT and form a dark blue formazan crystals which is largely impermeable to cell membranes, thus resulting in its accumulation within healthy cells. Solubilisation of the cells by the addition of a detergent results in the liberation of the crystals which are solubilized. The number of surviving cells is directly proportional to the level of the formazan product created. The color can then be quantified using a simple colorimetric assay. The results can be read on a multiwell scanning spectrophotometer (Mosmann T. Rapid colorimetric assay for cellular growth and survival: application to proliferation and cytotoxicity assays. J Immunol Methods. 1983 Dec. 16; 65(1-2):55-63).
Calvarial osteoblast cells plated at a density of 2.0×10^3 cells/200 ul in 96 wells plates. Cells were grown to 60% confluency and then treated with following compounds S006-1709, S006-1710, 5006-1711, S006-1713 and; S006-1714 at concentrations ranging from 10^−10 M to 10^−6M for 24 hrs. After treatment media was removed and 10 mM MTT was added solution in phenol red free DMEM media. After an incubation of 4 hrs the MTT solution was removed. Blue colored crystals were formed which were dissolved in DMSO and absorbance was read on ELISA plate reader at 570 nm wavelength.

[2] = test system: ovariectomized immature female rats; assay: Estrogenicity, uterine fresh weight in ovariectomized immature female rats; type: in vivo, rat; settings: 10 mg/Kg oral; for Estrogenic Activity, % (second line of cell): relative to vehicle; for Estrogenic Activity (uterine fresh weight): three consecutive days, vehicle 16.46
Procedure: (§2) 21 day old immature female rats (25-30 grams) were ovariectomized and given 7 days post-operative rest. Thereafter they were treated orally with the test agent (10 mg/Kg body weight) or with vehicle or Ethynyl estradiol, the reference standard for three consecutive days. For anti-estrogenicity, other than the test chemical, ethynyl estradiol (0.01 mg/kg) was given at 15 minutes interval before the test chemical. Autopsy was done 24 h after last treatment and uterine fresh weight was taken.

Calvarial osteoblasts [3] = assay: Alkaline phosphatase (ALP) activity for osteoblast differentiation, calvarial osteoblasts; type: cell-based, rat; settings: calvarial osteoblasts, 48 h
Procedure: as §1
70 to 80% confluent Calvarial osteoblasts were treated with μM S006-1709 for 48 h in the presence of ascorbate and glycerophosphate. At the end of incubation period, total ALP activity was measured with a method using p-nitrophenylphosphate (PNPP) as substrate. The reaction mixture contained diethanolamine buffer (1 mol/L, pH 9.8), 0.5 mmol/L MgCl2.6H2O, and 10 mmol/L PNPP. ALP activity was measured by taking OD of the amount of colored product formed by the dephosphorylation of PNPP at 405 nm. […] In addition, the effect of S006-1709 on mineralization of calvarial osteoblasts was studied.
(§3) We then studied its effect in osteoblast differentiation in both calvarial and bone marrow osteoblasts. Confluent calvarial osteoblasts (70 to 80%) were treated with S006-1710 for 48 h in the presence of ascorbate and glycerophosphate at concentrations ranging from 10^−16M to 10^−6M. At the end of incubation period, total ALP activity was measured with the same method used previously using p-nitrophenylphosphate (PNPP) as substrate.
70 to 80% confluent Calvarial osteoblasts were treated with S007-1351 for 48 h in the presence of ascorbate and glycerophosphate. At the end of incubation period, total ALP activity was measured with a method using p-nitrophenylphosphate (PNPP) as substrate. The reaction mixture contained diethanolamine buffer (1 mol/L, pH 9.8), 0.5 mmol/L MgCl2.6H2O, and 10 mmol/L PNPP. ALP activity was measured by taking OD of the amount of colored product formed by the dephosphorylation of PNPP at 405 nm.
70 to 80% confluent calvarial osteoblasts were treated with S007-1352 for 48 h in the presence of ascorbate and glycerophosphate at concentrations ranging from 10^−12M to 10^−6 M. At the end of incubation period, total ALP activity was measured with the same method used previously using p-nitrophenylphosphate (PNPP) as substrate.

bone marrow osteoblasts = assay: Mineralization of bone marrow osteoblasts (Alizarin red extraction); type: cell-based; settings: 10^−12M and 10^−10 M, 18 d bone marrow culture
Text: In addition, the effect of S006-1709 on mineralization of bone marrow osteoblasts was also studied.
In addition, the effect of S006-1710 on mineralization of bone marrow osteoblasts was also studied.

Calvarial osteoblasts [4] = assay: Mineralization of calvarial osteoblasts (Alizarin red extraction); type: cell-based, rat; settings: 10^−12 M and 10^−10 M
[5] = test system: ovariectomized immature female rats; assay: Anti-estrogenicity, uterine fresh weight with ethynyl estradiol co-treatment; type: in vivo, rat; settings: 10 mg/Kg oral plus ethynyl estradiol 0.01 mg/kg; for Anti-Estrogenic Activity, % (second line of cell): relative to ethynyl estradiol
Procedure: as §2

[6] = test system: bone marrow derived osteoblasts; assay: ALP activity in bone marrow derived osteoblasts; type: cell-based; settings: 10^−16M to 10^−6M
Procedure: as §3

3T3-L1 cells = assay: Anti-adipogenic effect (Oil Red O) in 3T3-L1 cells; type: cell-based, mouse
Procedure: The best characterized model of adipogenesis in vitro is the 3T3-L1 cell line, a substrain of Swiss 3T3 mouse cell line. 3T3-L1 cells propagated under normal conditions have a fibroblastic phenotype. However, when treated with a combination of dexamethasone, isobutylmethylxanthine (IBMX or MIX) and insulin, 3T3-L1 cells adopt a rounded phenotype and within 5 days begin to accumulate lipids intracellularly in the form of lipid droplets.
3T3-L1 cells were plated in 48-well plates 40,000 cells/well. The cells were incubated in DMEM containing fetal calf serum for 2 days until the cells become confluent. The cells were then incubated with Adipogenesis initiation media which contains DMEM with 10% FCS, IBMX and dexamethasone for 48 hrs at 37° C., 5% CO2. After two days the media was replaced with Adipogenesis Progression media which contains DMEM/10% FCS and insulin for 48 hrs at 37° C., 5% CO2, Media was again changed gently to Adipogenesis maintenance media for 48 hrs at 37° C., 5% CO2. At the end of eight days of experiment the cells were fixed and then stained with Oil Red O which stains lipid droplets. The dye was extracted and extracted dye was transferred to a 96-well plate and absorbance of extracted Oil Red O was measured in a plate reader at 490 nm.
Compounds S006-1709, S007-1351-53, S007-1495 and S007-1500 were tested in vitro in 3T3L1 cell line at two concentrations 10^−10 M and 10^−12M. FIG. 8A depicts the adipocytes formed at the end of the 8 day experiment. The fixed cells were stained with Oil Red O. The dye was then extracted and quantified.

[7] = test system: Immature 21 d old female SD rat; assay: In vivo efficacy, BMD in immature female SD rats; settings: for BMD % increase versus vehicle control, FEMUR Global / BMD % increase versus vehicle control, FEMUR Mid-shaft / BMD % increase versus vehicle control, FEMUR Neck / BMD % increase versus vehicle control, LUMBER VERTEBRAE Global / BMD % increase versus vehicle control, LUMBER VERTEBRAE L-1 / BMD % increase versus vehicle control, LUMBER VERTEBRAE L-2 / BMD % increase versus vehicle control, LUMBER VERTEBRAE L-3 / BMD % increase versus vehicle control, LUMBER VERTEBRAE L-4 / BMD % increase versus vehicle control, TIBIA Global / BMD % increase versus vehicle control, TIBIA Proximal / BMD % increase versus vehicle control, TIBIA TFSP: one month
Procedure: Immature 21 d old female SD rat model was chosen, animals were randomized into four groups and treated with a daily dose of test agent or vehicle for one month and autopsied on day 31.
[…], the animals were shifted to metabolic cage for acclaimatization for 24 h with food and water. Post acclaimatization animals were further left in metabolic cage for 24 h with water but no food. Blood and urine samples were collected after 24 h. Various biochemical parameters like serum calcium, serum phosphorus, serum osteocalcin, serum alkaline phosphatase (ALP) were evaluated. The animals were autopsied on day 31 and lumbar vertebrae, femur and tibia bones were isolated, cleaned and fixed in 70% ethanol in saline and stored at 4° C. until BMD measurement. Initial and final body weight and uterine weight at autopsy were recorded. BMD measurements of region of interest (lumbar: global, L1-L4; femur: global, neck and mid-shaft; tibia: global, proximal and tibio-fibula junction point) was performed using a bone densitometer (Model 4500 Elite, Hologic) fitted with commercially available software (QDR 4500 ACCLAIM series) for a fan-beam DXA system that permits determination of bone densitometry and measurement of body composition in small animals in vivo.

COc1ccccc1-c1coc2cc(O)ccc2c1=O [Compound S006-1710, 7-Hydroxy-3-(2-methoxy-phenyl)-chromen-4-one]
effect on osteoblast proliferation (MTT) [1]: no osteoblast proliferating action | estrogenicity (in words) [2]: estrogenic | Estrogenic Activity, % (second line of cell) [2]: 446% | Estrogenic Activity (uterine fresh weight) [2]: 89.96 | osteoblast ALP activity vs vehicle control (Calvarial osteoblasts [3]; 10^−16M to 10^−6M): significant increase | mineralization of bone marrow osteoblasts (nascent calcium deposition, Alizarin red) (bone marrow osteoblasts): stimulate mineralization; also recorded: significant increase | mineralization of calvarial osteoblasts (nascent calcium deposition, Alizarin red) (Calvarial osteoblasts [4]): stimulate mineralization | Anti-Estrogenic Activity (uterine fresh weight) [5]: 79.9 | anti-estrogenicity (in words) [5]: not found to be anti-estrogenic | Anti-Estrogenic Activity, % (second line of cell) [5]: 19%

O=c1c(-c2ccccc2O)coc2cc(O)ccc12 [Compound S006-1711, 7-Hydroxy-3-(2-hydroxy-phenyl)-chromen-4-one]
effect on osteoblast proliferation (MTT) [1]: did not have any effect | melting point: 196 to 198 °C | estrogenicity (in words) [2]: estrogenic | Estrogenic Activity, % (second line of cell) [2]: 192% | Estrogenic Activity (uterine fresh weight) [2]: 48.13 | ALP activity in bone marrow derived osteoblasts [6]: stimulated ALP activity | osteoblast ALP activity vs vehicle control (Calvarial osteoblasts [3]; 10^−16M to 10^−6M): stimulated ALP activity | mineralization of bone marrow osteoblasts (nascent calcium deposition, Alizarin red) (bone marrow osteoblasts): stimulated mineralization | mineralization of calvarial osteoblasts (nascent calcium deposition, Alizarin red) (Calvarial osteoblasts [4]): stimulated mineralization | Anti-Estrogenic Activity (uterine fresh weight) [5]: 85.16 | anti-estrogenicity (in words) [5]: not found to be anti-estrogenic | Anti-Estrogenic Activity, % (second line of cell) [5]: 13%

COc1ccccc1-c1coc2c(O)c(O)ccc2c1=O [Compound S007-1352, 7,8-Dihydroxy-3-(2-methoxy-phenyl)-chromen-4-one]
melting point: 220 to 222 °C | osteoblast ALP activity vs vehicle control (Calvarial osteoblasts [3]; 10^−12M to 10^−6M): significant increase | effect on adipogenesis (3T3-L1 cells; 3T3L1, both concentrations (10^−10 M and 10^−12M)): inducers of adipogenesis

C=CCOc1ccc2c(c1C)OCC1c3ccccc3OC21 (stereo not shown) [Compound S007-1500, 3-Allyloxy-4-methyl-6a,11a-dihydro-6H-benzo[4,5]furo[3,2-c]chromene]
estrogenicity (in words) [2]: devoid of any estrogenicity | osteoblast ALP activity vs vehicle control (Calvarial osteoblasts [3]; 10^−12M to 10^−6M): stimulated ALP activity | osteoblast ALP activity vs vehicle control (Calvarial osteoblasts [3]; 10^−12M to 10^−6M, listed as S-007-1500): showed stimulation in ALP activity | BMD % increase versus vehicle control, FEMUR Global ([7]; 1 mg/kg daily): +27% | BMD % increase versus vehicle control, FEMUR Mid-shaft ([7]; 1 mg/kg daily): +35% | BMD % increase versus vehicle control, FEMUR Neck ([7]; 1 mg/kg daily): +16% | BMD % increase versus vehicle control, LUMBER VERTEBRAE Global ([7]; 1 mg/kg daily): +13% | BMD % increase versus vehicle control, LUMBER VERTEBRAE L-1 ([7]; 1 mg/kg daily): +6% | BMD % increase versus vehicle control, LUMBER VERTEBRAE L-2 ([7]; 1 mg/kg daily): +21% | BMD % increase versus vehicle control, LUMBER VERTEBRAE L-3 ([7]; 1 mg/kg daily): +5.5% | BMD % increase versus vehicle control, LUMBER VERTEBRAE L-4 ([7]; 1 mg/kg daily): −8.5% | BMD % increase versus vehicle control, TIBIA Global ([7]; 1 mg/kg daily): +35% | BMD % increase versus vehicle control, TIBIA Proximal ([7]; 1 mg/kg daily): +16.5% | BMD % increase versus vehicle control, TIBIA TFSP ([7]; 1 mg/kg daily): +70% | BMD % increase versus vehicle control, FEMUR Global ([7]; 5 mg/kg daily): +25% | BMD % increase versus vehicle control, FEMUR Mid-shaft ([7]; 5 mg/kg daily): +30% | BMD % increase versus vehicle control, FEMUR Neck ([7]; 5 mg/kg daily): +26% | BMD % increase versus vehicle control, LUMBER VERTEBRAE Global ([7]; 5 mg/kg daily): +17% | BMD % increase versus vehicle control, LUMBER VERTEBRAE L-1 ([7]; 5 mg/kg daily): +7% | BMD % increase versus vehicle control, LUMBER VERTEBRAE L-2 ([7]; 5 mg/kg daily): +14.5% | BMD % increase versus vehicle control, LUMBER VERTEBRAE L-3 ([7]; 5 mg/kg daily): +25% | BMD % increase versus vehicle control, LUMBER VERTEBRAE L-4 ([7]; 5 mg/kg daily): +14% | BMD % increase versus vehicle control, TIBIA Global ([7]; 5 mg/kg daily): +37% | BMD % increase versus vehicle control, TIBIA Proximal ([7]; 5 mg/kg daily): +33% | BMD % increase versus vehicle control, TIBIA TFSP ([7]; 5 mg/kg daily): +69% | BMD in Femur and Tibia (in words) ([7]; both doses of 1.0 and 5.0 mg/kg): significant increase | effect on adipogenesis (3T3-L1 cells; 3T3L1, at different concentrations (10^−10 M and 10^−12M tested)): significantly inhibited adipogenesis
